Laboratory results as given in patent US20190150438A1, “CONFIGURATIONAL STEREOISOMER OF DIFETHIALONE, COMPOSITION AND RODENTICIDE BAIT COMPRISING SAME, AND METHOD FOR CONTROLLING TARGET RODENT PESTS” (priority 2015, published 2019).

Test: Hepatic content in dead rats by high-pressure liquid chromatography on a chiral column
Format: in vivo, rat
Method: About 0.525 g (±0.025 g) of rat liver is weighed out accurately and placed in a 50 mL polypropylene tube. 10 mL of acetone are added and the suspension is homogenized using an Ultra-Turrax® homogenizer/disperser for a time of about 30 seconds. The homogenizer/disperser shaft is rinsed with hot water and then twice with 20 mL of acetone in a polypropylene tube. The homogenate is centrifuged for 5 minutes at a centrifugation speed of 3000 rpm (revolutions per minute). The supernatant is collected and transferred into a test tube. The sample is subjected to evaporation under a stream of nitrogen (N2) at a temperature of 40° C. so as to form a dry extract.
1 mL of acetonitrile is added to the tube containing the dry extract so as to dissolve it. […]
The solution containing difethialone is analysed by high-pressure liquid chromatography on a LUX® Cellulose-3 chiral column (Phenomenex, Le Pecq, France) (150×2 mm, particle size of 3 μm) as described in point A2) above.
The measured values, expressed as micrograms of dextrorotatory enantiomer of said hetero-stereoisomer (“DFN-Hetero-dextro”) per gram of liver, are given in table 2 below.
The hepatic content of the dextrorotatory enantiomer of said hetero-stereoisomer of difethialone in each of the rats which die between D5 and D8 is measured by high-pressure liquid chromatography analysis on a chiral column. […]

Which results are given for `O=c1sc2ccccc2c(O)c1C1CC(c2ccc(-c3ccc(Br)cc3)cc2)Cc2ccccc21` (centres unmarked) [Total difethialone, 3-(4′-bromobiphenyl-4-yl)-1-(4-hydroxythiocoumarin-3-yl)-1,2,3,4-tetrahydronaphthalene]?
Hepatic content, mean (liver of rats which die between D5 and D8 after 10.6 ppm bait): 15.113 µg/g; Hepatic content, mean (liver of rats which die between D9 and D13 after 3.7 ppm bait): 5.372 µg/g
